Source: ChEMBL document CHEMBL5726547, “Substituted quinazolines as receptor-type kinase inhibitors” (2017)

molecular target: Vascular endothelial growth factor receptor 1 (Homo sapiens, UniProt P17948); test: AlphaScreen Assay: In AlphaScreen, when the donor and acceptor beads are close in proximity, a series of photochemical events will give rise to a fluorescent signal upon light activation. Here we use biotinylated poly-(Glu, Tyr) 4:1 as the kinase substrate, streptavidin-coated donor beads and anti-phosphortyrosine antibody PY100-coated acceptor beads. Upon phosphorylation, the peptide substrate …
Sequence (P17948 whole entry): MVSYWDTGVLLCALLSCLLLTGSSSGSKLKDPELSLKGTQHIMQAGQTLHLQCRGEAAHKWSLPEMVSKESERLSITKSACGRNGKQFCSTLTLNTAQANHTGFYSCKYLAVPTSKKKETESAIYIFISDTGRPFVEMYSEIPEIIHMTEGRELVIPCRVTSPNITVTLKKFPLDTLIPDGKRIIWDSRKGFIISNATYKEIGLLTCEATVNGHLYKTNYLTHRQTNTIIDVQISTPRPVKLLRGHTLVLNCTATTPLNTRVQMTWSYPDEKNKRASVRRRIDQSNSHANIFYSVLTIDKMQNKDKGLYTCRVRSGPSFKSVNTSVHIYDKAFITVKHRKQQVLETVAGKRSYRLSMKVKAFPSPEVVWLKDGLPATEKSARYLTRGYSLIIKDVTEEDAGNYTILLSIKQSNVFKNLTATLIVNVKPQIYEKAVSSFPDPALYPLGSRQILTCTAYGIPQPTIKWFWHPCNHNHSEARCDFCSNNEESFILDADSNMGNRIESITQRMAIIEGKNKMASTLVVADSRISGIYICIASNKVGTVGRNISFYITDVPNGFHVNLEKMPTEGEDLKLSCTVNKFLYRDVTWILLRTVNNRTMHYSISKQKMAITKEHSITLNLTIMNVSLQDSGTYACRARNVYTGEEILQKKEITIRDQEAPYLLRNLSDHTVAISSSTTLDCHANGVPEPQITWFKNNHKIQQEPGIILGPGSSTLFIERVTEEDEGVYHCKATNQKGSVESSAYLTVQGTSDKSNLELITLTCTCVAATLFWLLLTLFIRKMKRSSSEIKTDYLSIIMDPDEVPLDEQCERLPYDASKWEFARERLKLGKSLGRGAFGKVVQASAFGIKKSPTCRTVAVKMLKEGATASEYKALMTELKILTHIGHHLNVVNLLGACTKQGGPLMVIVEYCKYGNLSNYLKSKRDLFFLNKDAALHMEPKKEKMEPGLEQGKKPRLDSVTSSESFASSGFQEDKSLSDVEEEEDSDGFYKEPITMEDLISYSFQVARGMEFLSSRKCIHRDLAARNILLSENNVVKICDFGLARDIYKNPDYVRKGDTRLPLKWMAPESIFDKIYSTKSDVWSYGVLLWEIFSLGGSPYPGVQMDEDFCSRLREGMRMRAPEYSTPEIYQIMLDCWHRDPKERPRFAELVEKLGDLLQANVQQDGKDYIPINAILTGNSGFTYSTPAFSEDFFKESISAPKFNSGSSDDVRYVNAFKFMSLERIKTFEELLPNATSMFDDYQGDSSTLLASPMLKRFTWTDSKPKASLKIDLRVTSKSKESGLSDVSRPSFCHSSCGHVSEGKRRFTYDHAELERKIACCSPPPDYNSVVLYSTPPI

SMILES	IC50 [nM]
COc1cc2c(Nc3cc(Cl)c(Cl)cc3F)ncnc2cc1OC[C@H]1CN2CCOCC2CO1 (stereo not given in full)	50 to 1000
COc1cc2c(Nc3ccc(Cl)c(Cl)c3F)ncnc2cc1OC[C@H]1CN2CCOCC2CO1 (stereo not given in full)	50 to 1000
COc1cc2c(Nc3ccc(F)c(Cl)c3F)ncnc2cc1O[C@H]1CO[C@H]2[C@@H]1OC[C@@H]2OC	1000 to 20000
COc1cc2c(Nc3ccc(Cl)c(Cl)c3F)ncnc2cc1OC[C@H]1C[C@@H]2CN(C)C[C@@H]2C1	50 to 1000
COc1cc2c(Nc3ccc(F)c(Cl)c3F)ncnc2cc1OC[C@@H]1CN2CCOCC2CO1 (stereo not given in full)	50 to 1000

Continued, values first:

IC50 [nM]	SMILES
50 to 1000	COc1cc2c(Nc3cc(Cl)c(Br)cc3F)ncnc2cc1OC[C@H]1CN2CCOCC2CO1 (stereo not given in full)
50 to 1000	COc1cc2c(Nc3cc(Cl)c(Br)cc3F)ncnc2cc1OC[C@@H]1CN2CCOCC2CO1 (stereo not given in full)
50 to 1000	COc1cc2c(Nc3ccc(F)c(Cl)c3F)ncnc2cc1OC[C@H]1CN2CCOCC2CO1 (stereo not given in full)
50 to 1000	COc1cc2c(Nc3cc(Cl)c(Cl)cc3F)ncnc2cc1OC[C@@H]1CN2CCOCC2CO1 (stereo not given in full)
50 to 1000	COc1cc2c(Nc3ccc(Br)c(Cl)c3F)ncnc2cc1OC[C@H]1CN2CCOCC2CO1 (stereo not given in full)
